Reference: paper PMC4258814, “Differences between murine arylamine N-acetyltransferase type 1 and human arylamine N-acetyltransferase type 2 defined by substrate specificity and inhibitor binding” (BMC Pharmacology & Toxicology, 2014)
Numbering of substitutions follows the chain as printed.

How the values were obtained:
(MOUSE)NAT2*1 = biological target: T1, (MOUSE)NAT2*1 (Mus musculus, UniProt P50295); experiment: Substrate specific N-acetylation profile; type: biochemical; settings: for % specific activity values: substrate 500 μM, relative to substrate with highest specific activity (100%), mean of 3 ± SD
T1 construct: made in house
T1 sequence (P50295 1-290): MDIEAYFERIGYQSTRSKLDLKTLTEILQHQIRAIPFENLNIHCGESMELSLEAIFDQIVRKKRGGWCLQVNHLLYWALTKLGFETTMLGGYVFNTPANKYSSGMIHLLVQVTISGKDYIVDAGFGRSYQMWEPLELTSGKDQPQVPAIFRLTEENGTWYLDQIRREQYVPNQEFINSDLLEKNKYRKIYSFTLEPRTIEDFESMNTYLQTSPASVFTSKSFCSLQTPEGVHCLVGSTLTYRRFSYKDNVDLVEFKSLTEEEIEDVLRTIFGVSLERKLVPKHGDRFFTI

(MOUSE)NAT2_F125S = biological target: T2, (MOUSE)NAT2_F125S (Mus musculus, UniProt P50295, F125S); experiment: Substrate specific N-acetylation profile; type: biochemical; settings: for % specific activity values: (MOUSE)NAT2 F125S, substrate 500 μM, relative to substrate with highest specific activity (100%), mean of 3 ± SD
T2 construct: His tag (only implied by Ni-NTA purification) (cleaved yes); made in house; host or cells: E. coli Rosetta(DE3)pLysS
T2 sequence (P50295 1-290 F125S): T1 sequence (P50295 1-290) with F125S

(MOUSE)NAT2_R127G = biological target: T3, (MOUSE)NAT2_R127G (Mus musculus, UniProt P50295, R127G); experiment: Substrate specific N-acetylation profile; type: biochemical; settings: (MOUSE)NAT2 R127G; substrate 500 μM; relative to substrate with highest specific activity (100%); mean of 3 ± SD
T3 construct: made in house
T3 sequence (P50295 1-290 R127G): T1 sequence (P50295 1-290) with R127G

(MOUSE)NAT2_R127L = biological target: T4, (MOUSE)NAT2_R127L (Mus musculus, UniProt P50295, R127L); experiment: Substrate specific N-acetylation profile; type: biochemical; settings: (MOUSE)NAT2 R127L; substrate 500 μM; relative to substrate with highest specific activity (100%); mean of 3 ± SD
T4 construct: made in house
T4 sequence (P50295 1-290 R127L): T1 sequence (P50295 1-290) with R127L

(MOUSE)NAT1*1 = biological target: T5, (MOUSE)NAT1*1 (Mus musculus, UniProt P50294); experiment: Substrate specific N-acetylation profile; type: biochemical; settings: substrate 500 μM, relative to substrate with highest specific activity (100%), mean of 3 ± SD
T5 construct: The open reading frame of (MOUSE)Nat1*1 [32] was subcloned; hexa-His (N, cleaved yes); made in house; host or cells: Escherichia coli BL21(DE3)CodonPlus-RIL
T5 sequence (P50294 1-290): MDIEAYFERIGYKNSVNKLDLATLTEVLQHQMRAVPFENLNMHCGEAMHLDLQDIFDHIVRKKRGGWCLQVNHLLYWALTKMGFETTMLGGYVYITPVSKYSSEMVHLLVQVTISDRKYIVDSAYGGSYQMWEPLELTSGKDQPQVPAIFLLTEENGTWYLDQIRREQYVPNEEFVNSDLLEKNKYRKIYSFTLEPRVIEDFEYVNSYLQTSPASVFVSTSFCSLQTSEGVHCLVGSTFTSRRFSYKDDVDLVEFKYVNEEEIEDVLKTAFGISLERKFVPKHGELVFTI

(HUMAN)NAT1*4 = tested on: (HUMAN)NAT1*4; parameters: method as in PMID 15627487, PMID 18280460; settings: substrate 500 μM, relative to substrate with highest specific activity (100%), mean of 3 ± SD, ref [8], [22]; cited from earlier work
(MESAU)NAT2*1 = tested on: (MESAU)NAT2*1; parameters: method as in PMID 15627487, PMID 18280460; settings: substrate 500 μM, relative to substrate with highest specific activity (100%), mean of 3 ± SD, ref [8], [22]; cited from earlier work
(HUMAN)NAT2*4 = biological target: T6, (HUMAN)NAT2*4 (Homo sapiens, UniProt P11245); parameters: method as in PMID 15627487, PMID 18280460; settings: substrate 500 μM, relative to substrate with highest specific activity (100%), mean of 3 ± SD, ref [8], [22]; cited from earlier work
T6 construct: made in house
T6 sequence (P11245 1-290): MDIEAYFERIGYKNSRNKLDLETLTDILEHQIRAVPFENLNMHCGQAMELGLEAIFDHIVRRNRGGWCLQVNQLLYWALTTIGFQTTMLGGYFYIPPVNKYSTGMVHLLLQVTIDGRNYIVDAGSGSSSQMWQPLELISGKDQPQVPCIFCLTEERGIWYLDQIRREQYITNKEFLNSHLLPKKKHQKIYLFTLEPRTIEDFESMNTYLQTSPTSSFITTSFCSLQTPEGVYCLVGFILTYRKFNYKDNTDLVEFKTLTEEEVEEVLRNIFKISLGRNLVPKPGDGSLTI

[1] = ref [56]–[61], cited from earlier work

Row | SMILES | % specific activity values ((MOUSE)NAT2*1) [%] | % specific activity values ((MOUSE)NAT2_F125S) [%] | % specific activity values ((MOUSE)NAT2_R127G) [%] | % specific activity values ((MOUSE)NAT2_R127L) [%] | % specific activity values ((MOUSE)NAT1*1) [%] | % specific activity values ((HUMAN)NAT1*4) [%] | % specific activity values ((MESAU)NAT2*1) [%] | % specific activity values ((HUMAN)NAT2*4) [%] | pKa(H) (NH3^+) [1] | Maximal specific activity ((MOUSE)NAT2*1; best substrate, 500 μM) [µM/s/mg] | pKaH of acetyl acceptor amine ([1]; as summarised in text from Table S1) | pKa(H) (COOH) [1] | Maximal specific activity ((MOUSE)NAT2_F125S; (MOUSE)NAT2_F125S, best substrate, 500 μM) [µM/s/mg]
1 | Nc1ccc(Br)cc1 [4BA, 4-bromoaniline] | 52 ± 2 | 47 ± 2 | 70 ± 1 | 81 ± 11 | 28 ± 6 | 50 ± 1 | 72 ± 1 | 72 ± 1 | 3.4 (NH3^+) | – | – | – | –
2 | Nc1ccc(Cl)cc1 [4CA, 4-chloroaniline] | 46 ± 4 | 56 ± 2 | 54 ± 3 | 70 ± 1 | 18 ± 3 | 36 ± 2 | 61 ± 2 | 71 ± 3 | 3.8 (NH3^+) | – | – | – | –
3 | Nc1ccc(C(=O)O)cc1 [4ABA, 4-aminobenzoic acid] | 100 ± 2 | 70 ± 2 | 8 ± 1 | 8 ± 1 | 48 ± 6 | 100 ± 2 | 100 ± 6 | 6 ± 1 | 2.4 | 196 | < 3 | 4.9 | –
4 | COc1ccc(N)cc1 [ANS, 4-methoxyaniline] | 88 ± 6 | 100 ± 3 | 97 ± 4 | 77 ± 10 | 48 ± 1 | 56 ± 2 | 89 ± 1 | 9 ± 2 | 5.2 (NH3^+) | – | – | – | 25
5 | CCCCCCOc1ccc(N)cc1 [HOA, 4-hexyloxyaniline] | 23 ± 2 | 47 ± 1 | 59 ± 3 | 80 ± 8 | 3 ± 4 | 12 ± 4 | 35 ± 1 | 51 ± 2 | 5.1 (NH3^+) | – | – | – | –
6 | Nc1ccc(O)c(C(=O)O)c1 [5AS, 5-aminosalicylate] | 37 ± 1 | 74 ± 1 | 94 ± 1 | 65 ± 9 | 76 ± 6 | 64 ± 3 | 30 ± 1 | 64 ± 2 | – | – | – | – | –
